The target in one experiment is T1, P2X3 (UniProt P56373).
T1 sequence (P56373 1-397): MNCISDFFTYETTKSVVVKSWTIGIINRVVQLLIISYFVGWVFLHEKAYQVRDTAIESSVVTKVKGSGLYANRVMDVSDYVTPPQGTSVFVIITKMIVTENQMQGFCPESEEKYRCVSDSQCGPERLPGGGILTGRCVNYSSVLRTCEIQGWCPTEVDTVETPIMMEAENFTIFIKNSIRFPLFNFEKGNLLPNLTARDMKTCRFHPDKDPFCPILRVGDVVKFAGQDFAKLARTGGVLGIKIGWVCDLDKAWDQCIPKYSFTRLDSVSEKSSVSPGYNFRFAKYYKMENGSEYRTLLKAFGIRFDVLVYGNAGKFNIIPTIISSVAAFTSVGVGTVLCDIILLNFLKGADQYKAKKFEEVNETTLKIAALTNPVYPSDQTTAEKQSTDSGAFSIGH
As to the kind of experiment: P2X3 FLIPR intracellular calcium assay. The conditions noted are these: agonist at EC75, species (human or rat) not given. Type of experiment: cell-based. From the text:
The FLIPR® assay utilizes cells which express human or rat P2X3 or P2X2/3 receptors. […] The PCR product obtained containing the protein coding sequence of rat P2X2 was cloned into EcoRV-digested and dephosphorylated vector pIRES-puro3 within the multiple cloning site (MCS). See, FIG. 1A.
Rat P2X3 (NCBI Accession No: X91167) was amplified by PCR from rat brain cDNA. The PCR product obtained containing the protein coding sequence of rat P2X3 was cloned into EcoRV-digested and dephosphorylated vector pCDNA-Hygro within the multiple cloning site (MCS) (FIG. 1B). Rat P2X3 cloned into pcDNA-Hygro was then subcloned into pcDNA-5/TO at HindIII (5′) and XhoI (3′) sites within the multiple cloning site (MCS) of the vector (FIG. 1C).
(§1) Transfection was carried out using super-coiled constructs (purified using QIAGEN kit) in antibiotic free, serum free DMEM using Lipofectamine® 2000 (Invitrogen) transfection agent. The DNA constructs rat P2X2 in pIRES-Puro3 and rat P2X3 in pCDNA5/TO were co-transfected into TRex293 cells in order to generate the rP2X2/3 stable line. 50 μg/mL hygromycin (Invitrogen) and 0.5 μg/mL puromycin (Fermentek) were used for selection of stable clones of rP2X2/3. Rat P2X3 in pCDNA5/TO DNA construct was transfected to CHO-TRex cells to generate the rP2×3 stable line and 500 μg/mL hygromycin (Invitrogen) was used as selection antibiotic. Transfected stable colonies were then functionally verified and robust clones suitable for assay were clonally purified through dilutions.
(§2) Cryo-vial containing 6×10^6 cells (human P2X3-HEK/human P2X2/3-TRex293/rat P2X2/3-TRex293/rat P2X3 TRex-CHO) was thawed in a 37° C. water bath. Cells were suspended in 20 mL of respective cell plating media (See annexure for composition) in a 50 mL centrifuge tube. The cell viability was checked with the help of Trypan Blue dye. Upon washing, cells were plated in a black 384-well clear bottomed, sterile poly-D-lysine coated plate such that, each well contained 10,000 cells (15,000/well for hP2X3) in 30 μL cell plating media. The plate was incubated in a 5% CO2 incubator at 37° C. for 24 h.
(§3) The next day, prior to the assay, the cell plating media was removed from each well by decanting and gentle tapping. Thirty μL of FLIPR Calcium 4 dye solution was added to each well. The plate was incubated at 37° C. for 45 min (60 min for hP2X3). The plate was next equilibrated at room temperature for 15 minutes before placing it in a 384 well FLIPR for the assay.
Dilutions were mixed with assay buffer just before performing the assay.
(§4) Compounds were added to the respective wells of the assay-ready cell plate with the help of the FLIPR and fluorescence readings were captured for 5 min to observe any possible agonistic property of the compounds. The plate was then incubated at room temperature for 15 min. The cells were stimulated with respective agonist EC75 concentration and the fluorescence readings were captured for another 5 min by FLIPR. The difference in fluorescence readings in presence of the compounds were compared with that of the control wells (wells having no compound) to calculate the inhibitory potency of the compounds. The IC50 values of the compounds were determined using the Graph pad Prism software.
(vi) Dye Solution Composition • 1×FLIPR Calcium 4 dye in assay buffer (Molecular devices Cat# R8141) • 1.8 mM Probenecid (Sigma Cat# P8761) • pH adjusted to 7.4

The next experiment has as its target T2, P2X2/3 (Homo sapiens, UniProt P56373+Q9UBL9).
T2 sequence (Q9UBL9 1-471): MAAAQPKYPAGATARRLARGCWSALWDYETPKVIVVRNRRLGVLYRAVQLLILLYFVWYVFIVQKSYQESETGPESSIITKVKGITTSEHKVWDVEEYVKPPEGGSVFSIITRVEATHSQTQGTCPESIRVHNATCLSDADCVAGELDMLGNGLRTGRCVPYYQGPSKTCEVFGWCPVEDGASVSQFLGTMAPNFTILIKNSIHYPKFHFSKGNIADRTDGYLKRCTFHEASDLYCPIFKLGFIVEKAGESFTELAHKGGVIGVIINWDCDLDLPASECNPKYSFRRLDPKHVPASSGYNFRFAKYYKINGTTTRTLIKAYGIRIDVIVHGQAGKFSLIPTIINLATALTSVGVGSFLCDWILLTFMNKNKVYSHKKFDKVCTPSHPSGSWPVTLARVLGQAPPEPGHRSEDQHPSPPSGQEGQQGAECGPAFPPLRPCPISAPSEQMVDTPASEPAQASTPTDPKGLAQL
T2 sequence (P56373 1-397): T1 sequence (P56373 1-397)
Description: P2X2/3 FLIPR intracellular calcium assay. Type of experiment: cell-based. As to conditions: agonist at EC75, species (human or rat) not given.
Source text: The FLIPR® assay utilizes cells which express human or rat P2X3 or P2X2/3 receptors. Recombinant cells expressing hP2X3 (Cat#6188) and hP2X2/3 (Cat#6179) were procured from Chantest Corp. Rat P2X2 (NCBI Accession No: U14414) was amplified by PCR from PC12 cDNA (a rat adrenal medulla cell line). The PCR product obtained containing the protein coding sequence of rat P2X2 was cloned into EcoRV-digested and dephosphorylated vector pIRES-puro3 within the multiple cloning site (MCS). See, FIG. 1A.
as §1, §2, §3
Compounds were dissolved in DMSO and serially diluted following 11 point half log (3.16 fold) dilution with a starting concentration of 2 mM. Dilutions were mixed with assay buffer just before performing the assay.
as §4
(ii) Cell Plating Media for hP2X3-HEK and hP2X2/3-TRex293 Cells • DMEM/F12 (1:1) HAM media (Invitrogen; Cat#11039) • 1×NEAA (Invitrogen; Cat#11140) • 25 mM HEPES (Invitrogen; Cat#15630) • 1 mM sodium pyruvate (Invitrogen; Cat#11360) • 10% tetracycline negative FBS (PAA; Cat# A15-209) • 1 μg/mL doxycycline (Clontech; Cat#63131) [for hP2X2/3-TRex293 cells only]
(iii) Cell Plating Media for rP2X2/3-TRex293 Cells • DMEM media (Invitrogen; Cat#11965) • 25 mM HEPES (Invitrogen; Cat#15630) • 10% tetracycline negative FBS (PAA; Cat# A15-209) • 1 μg/mL Doxycycline (Clontech; Cat#63131)
(v) Assay Buffer Composition • HBSS (Invitrogen Cat#14025) • 20 mM HEPES (Invitrogen Cat#15630) • 0.01% F127 (Sigma Cat# P2443) • 1.8 mM CaCl2 (Sigma Cat# C5080) • pH adjusted to 7.4 […]
A general note: Calcium assays in cells follow changes in intracellular calcium, usually with a dye or a luminescent sensor.

As usually defined, the IC50 is the point on the concentration scale where inhibition reaches its midpoint. For the compound `Cc1noc(C(C)NC(=O)c2cc(-n3nnnc3C(F)F)c3ncc(-c4ccc(C)s4)n3c2)n1` (stereo in doubt) [Example 19, (R)-8-(5-(Difluoromethyl)-1H-tetrazol-1-yl)-N-(1-(3-methyl-1,2,4-oxadiazol-5-yl)ethyl)-3-(5-methylthiophen-2-yl)imidazo[1,2-a]pyridine-6-carboxamide], the IC50 on P2X3 and on P2X2/3 was 1 to 100 nM throughout.
With `CCc1nnc(-c2cc(C(=O)N[C@@H](C)c3nnc[nH]3)cn3c(-c4ccc(C)s4)cnc23)o1` [Example 1, (S)—N-(1-(4H-1,2,4-Triazol-3-yl)ethyl)-8-(5-ethyl-1,3,4-oxadiazol-2-yl)-3-(5-methylthiophen-2-yl)imidazo[1,2-a]pyridine-6-carboxamide], the IC50 was in the range of 100 to 1000 nM on P2X3 and 1000 to 10000 nM at P2X2/3.
The matching figures for `Cc1ccc(CNC(=O)c2cc(-n3c(C)cnc3C)c3ncc(-c4ccc(C)s4)n3c2)cn1` [Example 2, 8-(2,5-Dimethyl-1H-imidazol-1-yl)-N-((6-methylpyridin-3-yl)methyl)-3-(5-methylthiophen-2-yl)imidazo[1,2-a]pyridine-6-carboxamide]: more than 10000 nM and 100 to 1000 nM.
For the compound `Cc1ccc(-c2cnc3c(-n4c(C)nnc4C)cc(C(=O)N[C@@H](C)c4nnc[nH]4)cn23)s1` [Example 3, (S)—N-(1-(4H-1,2,4-Triazol-3-yl)ethyl)-8-(3,5-dimethyl-4H-1,2,4-triazol-4-yl)-3-(5-methylthiophen-2-yl)imidazo[1,2-a]pyridine-6-carboxamide], the results for the half-inhibitory concentration (IC50) on P2X3 and at P2X2/3 were 1000 to 10000 nM and 100 to 1000 nM, respectively.
Turning to `Cc1ccc(-c2cnc3c(-n4nncc4C(F)F)cc(C(=O)N[C@@H](C)c4nnc[nH]4)cn23)s1` [Example 4, (S)—N-(1-(4H-1,2,4-Triazol-3-yl)ethyl)-8-(5-(difluoromethyl)-1H-1,2,3-triazol-1-yl)-3-(5-methylthiophen-2-yl)imidazo[1,2-a]pyridine-6-carboxamide], the IC50 at P2X3 and at P2X2/3 was 1 to 100 nM throughout.
Regarding `Cc1ccc(CNC(=O)c2cc(-n3nncc3C(F)F)c3ncc(-c4nnc(C)s4)n3c2)cn1` [Example 5, 8-(5-(Difluoromethyl)-1H-1,2,3-triazol-1-yl)-3-(5-methyl-1,3,4-thiadiazol-2-yl)-N-((6-methylpyridin-3-yl)methyl)imidazo[1,2-a]pyridine-6-carboxamide], the IC50 at P2X3 and on P2X2/3 was 100 to 1000 nM throughout.
As for `CCc1ccnn1-c1cc(C(=O)NCc2ccc(C)nc2)cn2c(-c3ccc(C)s3)cnc12` [Example 6, 8-(5-Ethyl-1H-pyrazol-1-yl)-N-((6-methylpyridin-3-yl)methyl)-3-(5-methylthiophen-2-yl)imidazo[1,2-a]pyridine-6-carboxamide], the IC50 on P2X3 is more than 10000 nM; on P2X2/3 it was 100 to 1000 nM.
The matching figures for `Cc1ccc(-c2cnc3c(Nc4ccccc4)cc(C(=O)N[C@@H](C)c4nnc[nH]4)cn23)s1` [Example 7, (S)—N-(1-(4H-1,2,4-Triazol-3-yl)ethyl)-3-(5-methylthiophen-2-yl)-8-(phenylamino)imidazo[1,2-a]pyridine-6-carboxamide]: 1 to 100 nM and 100 to 1000 nM.
The corresponding values for `Cc1ccc(-c2cnc3c(-c4cnn(C)c4)cc(C(=O)N[C@@H](C)c4nnc[nH]4)cn23)s1` [Example 8, (S)—N-(1-(4H-1,2,4-Triazol-3-yl)ethyl)-8-(1-methyl-1H-pyrazol-4-yl)-3-(5-methylthiophen-2-yl)imidazo[1,2-a]pyridine-6-carboxamide] are 1 to 100 nM and 100 to 1000 nM.
The corresponding values for `CCCSc1cnc2c(N3CCC(C)CC3)cc(C(=O)N[C@@H](C)c3nnc[nH]3)cn12` [Example 10, (S)—N-(1-(4H-1,2,4-Triazol-3-yl)ethyl)-8-(4-methylpiperidin-1-yl)-3-(propylthio)imidazo[1,2-a]pyridine-6-carboxamide] are 100 to 1000 nM and 1000 to 10000 nM.
In the case of `Cc1ccc(-c2cnc3c(N4CCC(C)CC4)cc(C(=O)N[C@@H](C)c4nnc[nH]4)cn23)s1` [Example 11, (S)—N-(1-(4H-1,2,4-Triazol-3-yl)ethyl)-8-(4-methylpiperidin-1-yl)-3-(5-methylthiophen-2-yl)imidazo[1,2-a]pyridine-6-carboxamide], the values for the IC50 on P2X3 and on P2X2/3 were 1 to 100 nM and 100 to 1000 nM, respectively.
The corresponding values for `Cc1ccc(-c2cnc3c(N4CCC(C)(C(N)=O)CC4)cc(C(=O)N[C@@H](C)c4nnc[nH]4)cn23)s1` [Example 12, (S)—N-(1-(4H-1,2,4-Triazol-3-yl)ethyl)-8-(4-carbamoyl-4-methylpiperidin-1-yl)-3-(5-methylthiophen-2-yl)imidazo[1,2-a]pyridine-6-carboxamide] are 1 to 100 nM and 1 to 100 nM.
Regarding `Cc1ccc(CNC(=O)c2cc(-n3nncc3C(F)F)c3ncc(-c4ccc(C)s4)n3c2)cn1` [Example 27], on P2X3, the IC50 lay in the range of 1 to 100 nM.
Consider `Cc1ccc(-c2cnc3c(N4CCC(F)(F)CC4)cc(C(=O)N[C@@H](C)c4cc[nH]n4)cn23)s1` [Example 143], for which, on P2X3, the IC50 fell in the range of 1000 to 10000 nM.
With `COc1ccc(CNC(=O)c2cc(-n3nnnc3C3CCC3)c3ncc(-c4ccc(C)s4)n3c2)cc1` [Example 163], the IC50 at P2X3 was more than 10000 nM.

Values taken from US10316039B2, “P2X3 and/or P2X2/3 compounds and methods” (Asana Biosciences, LLC, priority 2013, dated 2019).
